Results from ChEMBL document CHEMBL1133519, “Novel design of nonpeptide AVP V(2) receptor agonists: structural requirements for an agonist having 1-(4-aminobenzoyl)-2,3,4, 5-tetrahydro-1H-1-benzazepine as a template” (J Med Chem, 2000).

target: not listed separately; assay: Binding affinity towards AVP receptor

Compound | Ki [nM]
Cc1ccccc1C(=O)Nc1ccc(C(=O)N2CCCC(O)c3cc(Cl)ccc32)c(C)c1 (stereo not drawn) [TOLVAPTAN] | 0.79

target: T1, Vasopressin V2 receptor (Homo sapiens, UniProt P30518); assay: Inhibition of [3H]AVP binding to human Vasopressin V2 receptor expressed in HeLa cells; format: cell-based
T1 sequence (P30518 whole entry): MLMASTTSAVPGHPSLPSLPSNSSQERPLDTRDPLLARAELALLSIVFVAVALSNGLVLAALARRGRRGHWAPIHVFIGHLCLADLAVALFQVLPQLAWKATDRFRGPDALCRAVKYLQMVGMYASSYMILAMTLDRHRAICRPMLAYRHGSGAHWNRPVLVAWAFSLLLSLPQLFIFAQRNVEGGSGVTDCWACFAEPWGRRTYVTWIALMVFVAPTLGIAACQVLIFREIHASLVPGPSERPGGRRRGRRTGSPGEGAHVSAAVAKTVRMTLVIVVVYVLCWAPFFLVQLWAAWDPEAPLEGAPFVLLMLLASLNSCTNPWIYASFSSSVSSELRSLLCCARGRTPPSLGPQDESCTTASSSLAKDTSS

Compound | IC50 [nM]
CCNc1ccc(C(=O)N2CCCCc3ccccc32)c(Cl)c1 | 34
O=C(c1ccc(N2CCCCC2)cc1Cl)N1CCCCc2ccccc21 | 120
Cc1ccn(-c2ccc(C(=O)N3CCCCc4ccccc43)c(Cl)c2)n1 | 13
CCCNc1ccc(C(=O)N2CCCCc3ccccc32)c(Cl)c1 | 18
O=C(c1ccc(N2CCCC2)cc1Cl)N1CCCCc2cc(Cl)ccc21 | 16
C=CCNc1ccc(C(=O)N2CCCCc3ccccc32)c(Cl)c1 | 5.9
CC1CCN(c2ccc(C(=O)N3CCCCc4ccccc43)c(Cl)c2)C1 (stereo not drawn) | 51
CCCCCNc1ccc(C(=O)N2CCCCc3ccccc32)c(Cl)c1 | 31
CCCCNc1ccc(C(=O)N2CCCCc3ccccc32)c(Cl)c1 | 22
O=C(c1ccc(-n2cccn2)cc1Cl)N1CCCCc2ccccc21 | 8.8
Cc1cc(N)ccc1C(=O)N1CCCCc2cc(Cl)ccc21 | 4.1
CCN(CC)c1ccc(C(=O)N2CCCCc3ccccc32)c(Cl)c1 | 19
O=C(c1ccc(N2CCCC2)cc1)N1CCCCc2cc(Cl)ccc21 | 210
CN(C)c1ccc(C(=O)N2CCCCc3cc(Cl)ccc32)c(Cl)c1 | 13
CNc1ccc(C(=O)N2CCCCc3ccccc32)c(Cl)c1 | 35
O=C(c1ccc(N2CCCC2)cc1Cl)N1CCCCc2ccccc21 | 9
O=C(c1ccc(-n2cccc2)cc1Cl)N1CCCCc2ccccc21 | 7.5
O=C(c1ccc(-n2cccc2)cc1)N1CCCCc2ccccc21 | 320
O=C(c1ccc(N2CCCC2)cc1)N1CCCCc2ccccc21 | 1000
CN(C)c1ccc(C(=O)N2CCCCc3ccccc32)c(Cl)c1 | 18
CCNc1ccc(C(=O)N2CCCCc3cc(Cl)ccc32)c(Cl)c1 | 5
Nc1ccc(C(=O)N2CCCCc3ccccc32)cc1 | 180

target: T1, Vasopressin V2 receptor; assay: Concentration which inhibit [3H]AVP binding to human Vasopressin V2 receptor coded HeLa cells by 50%; format: cell-based

Compound | IC50 [nM]
Cc1ccccc1OCC(=O)Nc1ccc(C(=O)N2CCCCc3cc(Cl)ccc32)c(C)c1 | 0.95

target: Vasopressin V1a receptor (Rattus norvegicus, UniProt P30560); assay: Binding affinity towards rat Vasopressin V1a receptor […]
Sequence (P30560 whole entry): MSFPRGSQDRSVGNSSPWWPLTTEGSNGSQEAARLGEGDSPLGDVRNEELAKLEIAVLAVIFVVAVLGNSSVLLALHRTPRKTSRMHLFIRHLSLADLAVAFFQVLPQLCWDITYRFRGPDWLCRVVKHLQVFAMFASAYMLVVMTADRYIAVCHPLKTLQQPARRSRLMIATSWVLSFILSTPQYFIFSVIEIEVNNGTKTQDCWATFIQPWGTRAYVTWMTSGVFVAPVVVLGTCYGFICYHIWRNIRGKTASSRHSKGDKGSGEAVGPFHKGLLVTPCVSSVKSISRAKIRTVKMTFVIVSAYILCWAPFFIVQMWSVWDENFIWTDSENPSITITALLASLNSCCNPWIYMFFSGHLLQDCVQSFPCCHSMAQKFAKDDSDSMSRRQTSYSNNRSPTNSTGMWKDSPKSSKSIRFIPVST

Compound | IC50 [µM]
Cc1ccccc1OCC(=O)Nc1ccc(C(=O)N2CCCCc3cc(Cl)ccc32)c(C)c1 | 5.1

target: T2, Vasopressin V2 receptor (Rattus norvegicus, UniProt Q00788); assay: Binding affinity towards rat Vasopressin V2 receptor
T2 sequence (Q00788 whole entry): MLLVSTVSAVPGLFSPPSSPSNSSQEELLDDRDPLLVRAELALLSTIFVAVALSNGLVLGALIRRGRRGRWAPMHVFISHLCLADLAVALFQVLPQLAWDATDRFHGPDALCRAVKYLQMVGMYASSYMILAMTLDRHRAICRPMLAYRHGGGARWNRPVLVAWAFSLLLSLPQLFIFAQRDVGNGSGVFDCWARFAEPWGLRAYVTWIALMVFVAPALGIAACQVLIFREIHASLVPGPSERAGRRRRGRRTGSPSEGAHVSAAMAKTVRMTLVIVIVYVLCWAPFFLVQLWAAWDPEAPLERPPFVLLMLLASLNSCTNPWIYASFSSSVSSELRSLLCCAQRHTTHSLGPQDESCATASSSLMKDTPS

Compound | IC50 [nM]
O=C(c1ccc(N2CCCC2)cc1Cl)N1CCCCc2ccccc21 | 150

target: Vasopressin V1a receptor (Homo sapiens, UniProt P37288); assay: Binding affinity towards Vasopressin V1a receptor in human liver
Sequence (P37288 whole entry): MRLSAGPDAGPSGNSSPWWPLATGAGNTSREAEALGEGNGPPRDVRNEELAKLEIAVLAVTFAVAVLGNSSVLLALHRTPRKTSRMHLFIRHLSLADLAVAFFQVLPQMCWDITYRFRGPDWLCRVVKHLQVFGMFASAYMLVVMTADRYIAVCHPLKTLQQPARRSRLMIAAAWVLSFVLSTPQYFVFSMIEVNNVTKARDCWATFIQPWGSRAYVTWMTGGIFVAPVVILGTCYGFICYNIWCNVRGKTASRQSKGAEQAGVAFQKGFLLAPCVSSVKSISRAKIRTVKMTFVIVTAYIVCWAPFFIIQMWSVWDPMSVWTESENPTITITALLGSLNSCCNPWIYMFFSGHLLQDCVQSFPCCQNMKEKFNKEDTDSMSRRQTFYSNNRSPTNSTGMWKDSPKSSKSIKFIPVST

Compound | Ki [µM]
CC(=O)NCCCOc1ccc(C(=O)N2CCC(N3C(=O)CCc4ccccc43)CC2)cc1 | 14

target: T2, Vasopressin V2 receptor; assay: Binding affinity towards rat Vasopressin V2 receptor in vitro

Compound | IC50 [nM]
Cc1ccccc1OCC(=O)Nc1ccc(C(=O)N2CCCCc3cc(Cl)ccc32)c(C)c1 | 38
